Experimental data as given in patent US8802597B2, “Herbicidal pyrimidines” (E I du Pont de Nemours and Company, priority 2003, dated 2014).

Key:
Assay in all cases: Test G pre/postemergence
Type in all cases: in vivo
[1] = system: spanishneedles (Bidens bipinnata)
Method in brief: (§1)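 Pre- and postemergence greenhouse test; compound in non-phytotoxic solvent/surfactant mix. Post timing: 2–18 cm plants, 1- to 4-leaf. Visual rating vs controls at 12–21 d, 0 (no effect) to 100 (complete control).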

[2] = system: kochia (Kochia scoparia)
Method in brief: as §1

[3] = system: common purslane (Portulaca oleracea)
Method in brief: as §1

[4] = system: Russian thistle (Salsola kali); conditions: Preemergence, scale 0-100
Method in brief: as §1

[5] = Postemergence, 250 g ai/ha, scale 0 to 100
[6] = Postemergence, 16 g ai/ha, scale 0 to 100
[7] = Postemergence, 31 g ai/ha, scale 0 to 100
[8] = Postemergence, 62 g ai/ha, scale 0 to 100
[9] = Postemergence, 125 g ai/ha, scale 0 to 100
[10] = Preemergence, 16 g ai/ha, scale 0-100
[11] = Preemergence, 31 g ai/ha, scale 0-100
[12] = Preemergence, 62 g ai/ha, scale 0-100
[13] = Preemergence, 125 g ai/ha, scale 0-100
[14] = Preemergence, 250 g ai/ha, scale 0-100
[15] = Postemergence, 8 g ai/ha, scale 0 to 100
[16] = Preemergence, 8 g ai/ha, scale 0-100

Row | SMILES | Plant response rating, Spanishneedles [1, 6] | Plant response rating, Spanishneedles [1, 7] | Plant response rating, Spanishneedles [1, 8] | Plant response rating, Kochia [2, 6] | Plant response rating, Kochia [2, 7] | Plant response rating, Kochia [2, 8] | Plant response rating, Kochia [2, 10] | Plant response rating, Kochia [2, 11] | Plant response rating, Kochia [2, 12] | Plant response rating, Purslane [3, 6] | Plant response rating, Purslane [3, 7] | Plant response rating, Purslane [3, 8] | Plant response rating, Purslane [3, 10] | Plant response rating, Purslane [3, 11] | Plant response rating, Purslane [3, 12] | Plant response rating, Russian Thistle ([4]; 62 g ai/ha) | also measured
1 | Nc1nc(C2CC2)nc(C(=O)[O-])c1Cl.[Na+] [Compound 77, 6-amino-5-chloro-2-cyclopropyl-4-pyrimidinecarboxylic acid monosodium salt] | 75 | 95 | 98 | 90 | 95 | 98 | 85 | 95 | 95 | 20 | 20 | 60 | 45 | 60 | 75 | 100 | Plant response rating, Spanishneedles [1, 5]: 98; Plant response rating, Spanishneedles [1, 9]: 98; Plant response rating, Kochia [2, 5]: 98; Plant response rating, Kochia [2, 9]: 98; Plant response rating, Kochia [2, 13]: 100; Plant response rating, Kochia [2, 14]: 100; Plant response rating, Purslane [3, 5]: 85; Plant response rating, Purslane [3, 9]: 70; Plant response rating, Purslane [3, 13]: 100; Plant response rating, Purslane [3, 14]: 100; Plant response rating, Russian Thistle ([4]; 16 g ai/ha): 85; Plant response rating, Russian Thistle ([4]; 250 g ai/ha): 100
2 | CCOC(=O)c1nc(-c2ccc(Cl)cc2)nc(N)c1Cl [Compound 64, ethyl 6-amino-5-chloro-2-(4-chlorophenyl)-4-pyrimidinecarboxylate] | 75 | 90 | 90 | 75 | 85 | 90 | 0 | 10 | 15 | 0 | 0 | 60 | 0 | 0 | 35 | 0 | Plant response rating, Spanishneedles [1, 15]: 65; Plant response rating, Spanishneedles [1, 16]: 0; Plant response rating, Spanishneedles [1, 10]: 0; Plant response rating, Spanishneedles [1, 11]: 0; Plant response rating, Spanishneedles [1, 12]: 35; Plant response rating, Kochia [2, 15]: 65; Plant response rating, Kochia [2, 16]: 0; Plant response rating, Purslane [3, 15]: 0; Plant response rating, Purslane [3, 16]: 0; Plant response rating, Russian Thistle ([4]; 8 g ai/ha): 0; Plant response rating, Russian Thistle ([4]; 31 g ai/ha): 0
